Results from patent publication US20100041689A1, “Combined Effects of Topiramate and Ondansetron on Alcohol Consumption” (UNIVERSITY OF VIRGINIA PATENT FOUNDATION, priority 2006, published 2010).

Key:
early-onset alcoholics [1] = conditions: cited from earlier work
[2] = system: alcohol-preferring (P) rats; test: Alcohol deprivation effect (ADE, relapse model), P rats; assay type: in vivo, rat; conditions: for alcohol deprivation effect (ADE), consumption 24 hours after ethanol reinstated: Example 4, chronic daily treatment from day 8 of 15-day withdrawal, topiramate 10 mg/kg, ondansetron 0.001 mg/kg, FIG. 5A
Method: (§1) The effects of ondansetron and topiramate were examined for their ability to modulate two important aspects of alcohol abuse: total consumption and relapse. Total consumption was examined under a 24-hour-access two-bottle choice procedure wherein rats had unlimited access to alcohol solutions (10%) and water. Alcohol relapse was assessed in alcohol-dependent rats by examining alcohol consumption following an extended abstinence period. Specifically, in alcohol-dependent rats, when alcohol is reintroduced following an extended abstinence period, rats show marked increases in consumption as compared with levels of consumption prior to abstinence.

[3] = system: alcohol-preferring (P) rats; test: Ethanol consumption, 24-hour-access two-bottle choice (10% ethanol vs. water), P rats; assay type: in vivo, rat; conditions: for decrease from baseline in alcohol consumption: Example 1, topiramate 10 mg/kg IP, ondansetron 0.001 mg/kg IP, test session, mean±SE of 17 rats; for decrease from baseline in alcohol consumption / preference for ethanol over water, average on test sessions / preference for ethanol over water, baseline change: P rats; for ethanol consumption vs baseline: Example 4, P rats N=18, topiramate 10 mg/kg, ondansetron 0.001 mg/kg, FIG. 4A; for preference for ethanol over water, average on test sessions: baseline average preference 0.6±0.2; for preference for ethanol over water, baseline change: test sessions
Method: Combined effect of topiramate (10 mg/kg, IP) and ondansetron (0.001 mg/kg, IP) on alcohol consumption in alcohol-preferring (P) rats. […] Data were plotted across 7 consecutive sessions, which include a 3-day baseline period, the test session in which the ondansetron and/or topiramate injection was administered, and the 3 sessions that followed the test session. […]
as §1
(§2) 1) The combination of topiramate and ondansetron reduces ethanol consumption in rats: Total consumption was examined under a 24-hour-access two-bottle choice procedure (10% ethanol vs. water). To induce drinking, both Wistar and P rats were trained onto ethanol using a standard sucrose fading procedure. […] At baseline, the average preference was 0.6±0.2, and the average values observed on test sessions with topiramate alone, ondansetron alone, the combination of topiramate and ondansetron, and vehicle were 0.51±0.2 (−9±4% baseline change), 0.58±0.0 (1±2%), 0.51±0.03 (−11±4%), and 0.59±0.03 (1%±0), respectively. […] At baseline, the average preference ratio was 0.30±0.03 and the average values observed on test sessions with topiramate alone, ondansetron alone, the combination of topiramate and ondansetron, and vehicle were 0.25±0.03 (−6±7% baseline change), 0.26±0.04 (2±2%), 0.31±0.02 (1±3%; P<0.05), and 0.3±0.03 (6%±4), respectively.

Wistar rats = test: Ethanol consumption, 24-hour-access two-bottle choice, Wistar rats; assay type: in vivo, rat; conditions: for alcohol consumption, change from baseline: Example 3, ondansetron 0.001 or 0.01 mg/kg with topiramate 10 mg/kg IP, 4 to 5 rats, FIG. 3; for alcohol consumption, change from baseline / preference ratio for ethanol over water, average on test sessions / preference for ethanol over water, baseline change: Wistar rats; for ethanol consumption: Example 4, Wistar rats n=5, preliminary, FIG. 4B; for preference ratio for ethanol over water, average on test sessions: baseline average 0.30±0.03; for preference for ethanol over water, baseline change: test sessions
Method: Combined effect of topiramate (5 and 10 mg/kg, IP) and ondansetron (0.001 and 0.01 mg/kg, IP) on alcohol consumption in Wistar rats. […] The experiments utilized four to five rats per condition. Data are expressed as change from baseline levels of alcohol consumption.
as §1, §2

early-onset alcoholics [4] = conditions: ondansetron in early-onset alcoholics
[5] = system: alcohol-dependent subjects; conditions: topiramate alone, cited from earlier work
[6] = system: alcohol-dependent subjects; test: Topiramate alone in alcohol dependence (comparison data from a different study); assay type: in vivo, human

Row | SMILES | alcohol deprivation effect (ADE), consumption 24 hours after ethanol reinstated [2] | decrease from baseline in alcohol consumption [3] | ethanol consumption vs baseline [3] | preference for ethanol over water, average on test sessions [3] | preference for ethanol over water, baseline change [3] [%] | alcohol consumption, change from baseline (Wistar rats) | ethanol consumption (Wistar rats) | preference ratio for ethanol over water, average on test sessions (Wistar rats) | preference for ethanol over water, baseline change (Wistar rats) [%] | further results
1 | Cc1nccn1CC1CCc2c(c3ccccc3n2C)C1=O (stereo not drawn) [Ondansetron, 9-methyl-3-[(2-methyl-1H-imidazol-1-yl)methyl]-1,2,3,9-tetrahydrocarbazol-4-one] | blocked the ADE | 1%±7% | did not impact ethanol consumption on its own | 0.58±0.0 | 1±2 | lack of modulation | no affect was observed on consumption | 0.26±0.04 | 2±2 | report of weight loss (early-onset alcoholics [1]; individuals taking ondansetron alone): no appreciable report of weight loss; paresthesia (early-onset alcoholics [1]; ondansetron administered alone): not associated with paresthesia; mean reduction in drinks per day (early-onset alcoholics [1]; ondansetron alone in early-onset alcoholics): −3.28 drinks per day; Cohen's effect size: drinks per day (early-onset alcoholics [4]): −0.55; Cohen's effect size: drinks per drinking day (early-onset alcoholics [4]): −0.48; Cohen's effect size: percentage of days abstinent (early-onset alcoholics [4]): +0.27
2 | CC1(C)O[C@@H]2[C@@H](CO[C@@]3(COS(N)(=O)=O)OC(C)(C)O[C@@H]23)O1 [Topiramate, 2,3:4,5-Bis-O-(1-methylethylidene)-beta-D-fructopyranose sulfamate] | blocked the ADE | 13±5% | significant decrease from baseline ethanol consumption | 0.51±0.2 | −9±4 | lack of modulation | no affect was observed on consumption | 0.25±0.03 | −6±7 | alcohol consumption following a two-week abstinence period (alcohol deprivation effect) ([2]; Example 2, topiramate 10 mg/kg IP, ondansetron 0.001 mg/kg IP, 2 to 3 rats, FIG. 2): attenuated the alcohol deprivation effect; adverse event rate: dizziness ([5]; different study): 28%; adverse event rate: paresthesia ([5]; different study): 54%; adverse event rate: slowing in psychomotor performance ([5]; different study): 27%; individuals reporting weight loss [5]: 19.7%; frequency of paresthesia ([5]; share of individuals): over 50%; Cohen's effect size: drinks per day [6]: −0.80; Cohen's effect size: drinks per drinking day [6]: −0.63; Cohen's effect size: percentage of days abstinent [6]: +0.73
